This passage reports inhibition, EC50 and Emax results from patent publication US10350199B2, “3-(1h-pyrrolo[2,3-b]pyridin-2-yl)-1h-indazoles and therapeutic uses thereof” (Samumed, LLC, priority 2015, dated 2019).

Some results are limits rather than exact numbers.

Format in all cases: cell-based
Assay [1] has as its system Wnt activity (Sp5-Luc reporter, SW480 colon carcinoma cells). Nature of the assay: Wnt activity screening assay, Sp5-Luc reporter gene in SW480 cells. The settings on record: Homo sapiens; for inhibition at 10 µM: SW480, read-out: percent inhibition at 10 μM; for EC50: Sp5-Luc reporter, SW480 cells, overnight incubation. The procedure, abridged:
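Read-out is BrightGlo luminescence, normalized to DMSO-treated cells and fitted by four-parameter variable-slope regression for EC50. Reporter cells: SW480 colon carcinoma carrying a stable lentiviral Sp5-Luc construct with eight TCF/LEF sites, seeded 4,000/well in 1% FBS, incubated overnight at 37° C.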
A general note: A reporter such as luciferase makes a cellular process visible.

Assay [2] relates to primary human fibroblasts derived from IPF patients (LL29 cells) treated with TGF-β1. The assay is described as follows: Inhibition of the fibrotic process: αSMA staining in TGF-β1 treated LL29 fibroblasts. The settings on record: Fibroblast; for EC50: 96 h, LL29 cells, TGF-β1 20 ng/mL, 4 days, % αSMA positive cells; for inhibition at 10 µM: read-out: percent inhibition at 10 μM. The procedure, abridged:
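Read-out after 4-day incubation: αSMA staining with 1 μM SYTOX green nuclear counterstain (30 min, room temperature). Cells were LL29 primary fibroblasts from IPF patients, in 1% FBS F12, exposed to TGF-β1 with test compound, referenced to TGF-β1/DMSO control wells.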

The next assay deals with SW480 colon cancer cells. The assay is described as follows: Cell viability assay (CellTiter-Blue), SW480 cells, four days. Particulars: Homo sapiens; for EC50: 96 h, SW480 cell viability, four days, CellTiter-Blue; for inhibition at 10 µM: SW480, read-out: percent inhibition at 10 μM. The procedure, abridged:
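Fluorescence from resazurin reduced to resorufin by metabolically active cells was the read-out, taken after ~3 h with CellTiter-Blue.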

The test system of assay [3] is IL-6 (THP-1 human monocyte cell line). The assay is described as follows: IL-6 inhibition in LPS-stimulated THP-1 cells (HTRF). The settings on record: for EC50: IL-6 inhibition, LPS-stimulated THP-1 cells, HTRF; for inhibition at 10 µM: THP-1, read-out: percentage in parentheses beside EC50 >10 (IL-6 inhibition). An outline of the steps:
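After 24 h in 1% FBS medium, cells had compound 2 h before 500 ng/mL LPS, then 22 h more at 37 °C. DMSO-normalized HTRF signal (665/620 nm ratio, anti-IL-6 antibody pair) was fitted with a variable-slope four-parameter model to give EC50.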
(In general: Time-resolved FRET reads energy transfer from a long-lived donor to a nearby acceptor.)

The test system of assay [4] is primary human mesenchymal stem cells (hMSCs). The assay is described as follows: Induction of chondrogenesis in human mesenchymal stem cells (nodule area, Rhodamine B/Nile Red). The settings on record: hMSC chondrogenesis; for EC50: concentration required to induce 50% levels of chondrogenesis of TGF-β3 positive control, read-out: Conc (nM) of 50% TGF-β3 activity; for Emax: relative to TGF-β3 (10 ng/mL) positive control, read-out: Max. Activity as % TGF-β3 activity. An excerpt: Representative compounds were screened using primary human mesenchymal stem cells (hMSCs) to determine their ability to induce chondrogenesis (process by which cartilage is developed).
Primary human mesenchymal stem cells (hMSCs) were purchased from Lonza (Walkersville, Md.) and expanded in Mesenchymal Stem Cell Growth Media (Lonza). Cells between passage 3 and 6 were used for the experiments.
Area of nodules in each well was normalized to the average of 3 DMSO treated wells on the same plate using Excel (Microsoft Inc.). The normalized averages (fold change over DMSO) of 2 or 3 replicate wells for each compound concentration were calculated. Due to solubility limitations of some of the compounds, curve fitting was incomplete leading to inaccurate EC50 determinations.
Using TGF-β3 as a positive control, the concentration of representative compounds required to induce 50% levels of chondrogenesis is reported. In addition, the maximum activity of each compound and the respective dose that each compound reached maximum chondrogenesis activity is reported.

As usually defined, the inhibition is how much of the control response was suppressed. On to `Cc1ccncc1-c1ccc2[nH]nc(-c3cc4c(-c5ccccc5F)ccnc4[nH]3)c2c1` [Compound 61, 3-(4-(2-Fluorophenyl)-1H-pyrrolo[2,3-b]pyridin-2-yl)-5-(4-methylpyridin-3-yl)-1H-indazole], for which the values for the inhibition at 10 µM (in assay [1]; with SW480 colon cancer cells; in assay [3]) were 3.5%, 14.9% and 22.7%, respectively. For the same compound, the EC50 in assay [1] was more than 10 µM; in assay [2] it was 0.45 µM; with SW480 colon cancer cells it was more than 10 µM; in assay [3] it was more than 10 µM; in assay [4] it was 30 nM. Besides, in assay [4], the Emax was 54%.
As for `CC(C)CC(=O)Nc1cncc(-c2ccc3[nH]nc(-c4cc5c(-c6cccnc6)ccnc5[nH]4)c3c2)c1` [Compound 86, 3-Methyl-N-(5-(3-(4-(pyridin-3-yl)-1H-pyrrolo[2,3-b]pyridin-2-yl)-1H-indazol-5-yl)pyridin-3-yl)butanamide], the EC50 in assay [1] is 0.184 µM; in assay [2], more than 10 µM; in the assay on SW480 colon cancer cells it was more than 10 µM; in assay [3] it was 0.55 µM; in assay [4], 900 nM. The inhibition at 10 µM in assay [2] came to 25.9%; with SW480 colon cancer cells it was 44.6%. The Emax in assay [4] stood at 104%.
For the compound `c1cncc(-c2ccc3[nH]nc(-c4cc5c(-c6cccnc6)ccnc5[nH]4)c3c2)c1` [Compound 88, 5-(Pyridin-3-yl)-3-(4-(pyridin-3-yl)-1H-pyrrolo[2,3-b]pyridin-2-yl)-1H-indazole], the inhibition at 10 µM was 48.8% in assay [1], 0% in assay [2] and 11.2% with SW480 colon cancer cells. Further, the EC50 in assay [1] was more than 10 µM; in assay [2] it was more than 10 µM; with SW480 colon cancer cells, more than 10 µM; in assay [3] it was 0.648 µM. Also, the Emax in assay [4] came out at 17%.
Take `CCNCc1cncc(-c2ccc3[nH]nc(-c4cc5c(-c6cccnc6)ccnc5[nH]4)c3c2)c1` [Compound 90, N-((5-(3-(4-(Pyridin-3-yl)-1H-pyrrolo[2,3-b]pyridin-2-yl)-1H-indazol-5-yl)pyridin-3-yl)methyl)ethanamine]: the inhibition at 10 µM in assay [1] amounted to 28.6%; in assay [2], 0%; in the assay with SW480 colon cancer cells, 31.3%. Moreover, the EC50 is more than 10 µM in assay [1], more than 10 µM in assay [2], more than 10 µM in the assay on SW480 colon cancer cells and 0.561 µM in assay [3]. Also, the Emax in assay [4] worked out at 29%.
On to `CC(C)Nc1cncc(-c2ccc3[nH]nc(-c4cc5c(-c6cccnc6)ccnc5[nH]4)c3c2)c1` [Compound 96, N-Isopropyl-5-(3-(4-(pyridin-3-yl)-1H-pyrrolo[2,3-b]pyridin-2-yl)-1H-indazol-5-yl)pyridin-3-amine], for which the inhibition at 10 µM in assay [1] was determined as 38.9%; in assay [2], 10%; in the assay on SW480 colon cancer cells it was 28.2%. Also, the EC50 was more than 10 µM in assay [1], more than 10 µM in assay [2], more than 10 µM in the assay on SW480 colon cancer cells and 0.409 µM in assay [3]. Also, the Emax in assay [4] stood at 45%.
`c1cncc(-c2ccnc3[nH]c(-c4n[nH]c5ccc(-c6cncc(CN7CCCCC7)c6)cc45)cc23)c1` [Compound 99, 5-(5-(Piperidin-1-ylmethyl)pyridin-3-yl)-3-(4-(pyridin-3-yl)-1H-pyrrolo[2,3-b]pyridin-2-yl)-1H-indazole]: the inhibition at 10 µM in assay [1] was determined as 18.6%; in assay [2] it was 4%; in the assay on SW480 colon cancer cells it was 50.6%; in assay [3], 0%. Further, the EC50 in assay [1] is more than 10 µM; in assay [2] it was more than 10 µM; in the assay on SW480 colon cancer cells, more than 10 µM; in assay [3], more than 10 µM; in assay [4], 30 nM. In addition, in assay [4], the Emax worked out at 62%.
As to `O=C(Nc1cncc(-c2ccc3[nH]nc(-c4cc5c(-c6cccnc6)ccnc5[nH]4)c3c2)c1)C1CCCCC1` [Compound 107, N-(5-(3-(4-(Pyridin-3-yl)-1H-pyrrolo[2,3-b]pyridin-2-yl)-1H-indazol-5-yl)pyridin-3-yl)cyclohexanecarboxamide], the inhibition at 10 µM in assay [1] is 10.6%; in assay [2] it was 41.7%; with SW480 colon cancer cells, 12%; in assay [3] it was 34.4%. The EC50 (in assay [1]; in assay [2]; in the assay on SW480 colon cancer cells; in assay [3]) was more than 10 µM throughout. In addition, in assay [4], the Emax came to 39%.
Take `FC1(F)CCN(Cc2cncc(-c3ccc4[nH]nc(-c5cc6c(-c7cccnc7)ccnc6[nH]5)c4c3)c2)C1` [Compound 110, 5-(5-((3,3-Difluoropyrrolidin-1-yl)methyl)pyridin-3-yl)-3-(4-(pyridin-3-yl)-1H-pyrrolo[2,3-b]pyridin-2-yl)-1H-indazole]: the EC50 was 0.523 µM in assay [1], 0.095 µM in assay [2], more than 10 µM in the assay with SW480 colon cancer cells and 3.34 µM in assay [3]. The inhibition at 10 µM with SW480 colon cancer cells stood at 51.8%. For the same compound, the Emax in assay [4] stood at 20%.
For `Cc1ccncc1-c1ccc2[nH]nc(-c3cc4c(-c5ccncc5)ccnc4[nH]3)c2c1` [Compound 117, 5-(4-Methylpyridin-3-yl)-3-(4-(pyridin-4-yl)-1H-pyrrolo[2,3-b]pyridin-2-yl)-1H-indazole], the inhibition at 10 µM in assay [1] was determined as 31.8%; in assay [2] it was 44.2%; in the assay on SW480 colon cancer cells, 4.6%; in assay [3], 31.5%. The EC50 (in assay [1]; in assay [2]; in the assay with SW480 colon cancer cells; in assay [3]) was more than 10 µM throughout. In addition, the Emax in assay [4] came to 44%.
As to `CC(C)(C)C(=O)Nc1cncc(-c2ccc3[nH]nc(-c4cc5c(-c6ccncc6)ccnc5[nH]4)c3c2)c1` [Compound 120, N-(5-(3-(4-(Pyridin-4-yl)-1H-pyrrolo[2,3-b]pyridin-2-yl)-1H-indazol-5-yl)pyridin-3-yl)pivalamide], the inhibition at 10 µM in assay [1] worked out at 36.6%; in assay [2], 12.8%; in the assay on SW480 colon cancer cells, 10.7%; in assay [3], 35.6%. Further, the EC50 (in assay [1]; in assay [2]; in the assay on SW480 colon cancer cells; in assay [3]) was more than 10 µM each time. Besides, the Emax in assay [4] came to 44%.
As for `O=C(Nc1cncc(-c2ccc3[nH]nc(-c4cc5c(-c6ccncc6)ccnc5[nH]4)c3c2)c1)c1ccccc1` [Compound 123, N-(5-(3-(4-(Pyridin-4-yl)-1H-pyrrolo[2,3-b]pyridin-2-yl)-1H-indazol-5-yl)pyridin-3-yl)benzamide], the inhibition at 10 µM in assay [1] stood at 17.3%; in assay [2] it was 49.2%; with SW480 colon cancer cells it was 7.2%; in assay [3], 20.6%. Also, the EC50 (in assay [1]; in assay [2]; in the assay on SW480 colon cancer cells; in assay [3]) was more than 10 µM throughout. In addition, the Emax in assay [4] is 19%.
For `CN(C)Cc1cncc(-c2ccc3[nH]nc(-c4cc5c(-c6ccncc6)ccnc5[nH]4)c3c2)c1` [Compound 125, N,N-Dimethyl-1-(5-(3-(4-(pyridin-4-yl)-1H-pyrrolo[2,3-b]pyridin-2-yl)-1H-indazol-5-yl)pyridin-3-yl)methanamine], the inhibition at 10 µM was 29.7% in assay [1], 0% in assay [2], 7.4% in the assay on SW480 colon cancer cells and 49.7% in assay [3]. In addition, the EC50 (in assay [1]; in assay [2]; in the assay on SW480 colon cancer cells; in assay [3]) was more than 10 µM each time. Further, the Emax in assay [4] worked out at 37%.
